From ChEMBL document CHEMBL3507680, “University of Dundee, Gates Library screen for HepG2 cell viability”

Assay: Human HepG2 cell viability assay in 384 well format
Type: toxicity, cell-based
Set-up: dose 125 nL, time 70.5 hour; concentration not given beside the values
Conditions: HepG2 cells, read-out: Inhibition

SMILES	cytotoxicity at 70.5 h
CSCc1cc(F)ccc1CNCc1ncc[nH]1	-8.53%
CSCc1cc(F)ccc1CNCc1cccc(O)c1	-5.38%
CSc1[nH]c(=O)c(C(=O)N2CCCC2C2CCCC2)cc1C#N (stereo not given)	-5.31%
CN(CC(F)(F)F)C(=O)CNC(=O)N1CCCC(N(C)C)C1 (stereo not given)	-8.19%
CC1COCCN1Cc1nc(Cc2ccccc2)no1 (stereo not given)	-8.66%
O=C(NC1CCN(C(=O)C2CCCCC2)C1)c1ccncc1Cl (stereo not given)	-9.33%
Cn1cnnc1C1CCCN(C(=O)c2cc(C3CC3)on2)C1 (stereo not given)	-10.9%
FC(F)(F)c1cccc(C2(CNCc3ccncc3)CCOCC2)c1	6.55%
CNS(=O)(=O)c1cccc(C(C)NCc2nccn2C(C)C)c1 (stereo not given)	10.8%
CC(C)OCCCN1CCCC(c2nc3ccccc3n2C(C)C)C1 (stereo not given)	13.2%
Cc1cc(C(N)=O)ccc1NC(=O)c1nc(N2CCCC2)ncc1Cl	-4.63%
NCC1(c2cccc(C(F)(F)F)c2)CCOCC1	-3.44%
NS(=O)(=O)CCNC(=O)c1nnn(-c2ccc(F)cc2)c1C1CC1	-2.85%
CN1CCCC1CNC(=O)c1nnn(-c2ccc(F)cc2)c1C1CC1 (stereo not given)	22.3%
NS(=O)(=O)CCNC(=O)c1nnn(-c2ccccc2)c1C1CC1	-2.47%
COc1ccc(C2CCCN2C(=O)c2cc3c([nH]c2=O)CCC3)cc1 (stereo not given)	-2.02%
COc1cccc(C2CCCN2C(=O)c2cc3c([nH]c2=O)CCC3)c1 (stereo not given)	-2.15%
CNC(=O)c1cnc(/C=C/c2cc(OC)c(OC)c(OC)c2)s1	3.41%
CNC(=O)c1cnc(/C=C/c2cc(OC)cc(OC)c2)s1	17.6%
COc1ccc(NC(C)=O)c(N2CCN(C(C)=O)CC2)n1	-0.156%
CCS(=O)(=O)N(C)C1CCN(C(=O)c2cccc(Cl)c2)CC1	-4.92%
Cc1csc(NC(=O)CN(C)CC2CCCN2c2cccnn2)n1 (stereo not given)	3.61%
CCc1nc(CCNC(=O)NC2CC2)sc1C	5.49%

SMILES	cytotoxicity at 70.5 h
COC(=O)C1CCN(c2cncc(-n3nc(C)cc3C)n2)CC1	2.18%
Cc1cc(CN2CCc3nn(C(C)C)c(=O)cc3C2)no1	5.97%
COCc1nc2cc(NCc3ccncc3)ccc2o1	16.6%
CC(CNC(=O)N1CCSCC1)Cc1cccs1 (stereo not given)	4.95%
COCc1nc2cc(NCc3ccc(C)o3)ccc2o1	0.17%
CC(C)CCN1CCN(Cc2nc(C3CC3)no2)CC1	20.6%
CCN1CCC(CNCc2cc(OC)ccc2OC)C1 (stereo not given)	5.64%
COCCN1CCN(C(C)C(=O)Nc2ccnn2C(C)C)CC1 (stereo not given)	1.69%
CCc1nc(CCNC(=O)C2CCOC2)sc1C (stereo not given)	-2.78%
CC(CNC(=O)N1CCN(c2cnccn2)CC1)Cc1cccs1 (stereo not given)	-4.18%
Cc1cc(F)ccc1CN1CCCC2(C1)OCCO2	-3.36%
COc1ccc(CNCC2CC2)cc1F	-7.42%
COc1cccc(CN(C)C(=O)CN2CCN(CCO)CC2)c1	-7.48%
COc1cccc(CN(C)C(=O)CN2CCN(c3nccn3C)CC2)c1	-6.12%
CC1CCN(C(CNC(=O)CCn2cccn2)c2cccs2)CC1 (stereo not given)	-1.29%
Cc1ccc(CNCc2nnc3n2CCCC3C(F)(F)F)o1 (stereo not given)	6.51%
O=c1oc(-c2cccs2)nn1CC(O)c1ccc(F)cc1 (stereo not given)	-11.2%
NC(=O)C1CCCN1Cc1cccc(NC(=O)c2ccsc2)c1 (stereo not given)	-11.3%
CCOc1ncccc1CNC(=O)N1CCCC1c1cc(C)no1 (stereo not given)	-12.6%
CCSCCC(=O)Nc1ncn(Cc2cccnc2)n1	-9.89%
CCC(C)NC(=O)c1ccccc1-n1cnnn1 (stereo not given)	-11.4%
COc1ccc(-n2cnnc2SCCC#N)cn1	-4.7%
CN(C)CCCNC(=O)c1cc(Br)c2c(c1)OCCO2	-7.25%

SMILES	cytotoxicity at 70.5 h
CCc1nc(CNC(=O)Nc2ccc(C(=O)NC)cc2C)cs1	-22.3%
O=C(NC1(c2nnn(CCO)n2)CCCC1)c1ccccc1	-1.16%
CN(CCNC(=O)N1CCN(Cc2ccon2)CC1)C1CCCC1	-1.48%
CC(NC(=O)NCCCn1cccn1)c1cccnc1 (stereo not given)	18.1%
COC(=O)CCN1CCCC1c1cccc2c1OCCO2 (stereo not given)	-6.05%
Cc1cc(CN(C)C2CCCN(c3cccnn3)C2)on1 (stereo not given)	28.9%
CC(C)N(C)CC(=O)NC1CCc2nccn2C1 (stereo not given)	17.3%
COCCc1noc(CN(C)C2CCCN(c3ccc(C)nn3)C2)n1 (stereo not given)	24.4%
Cc1cnn(C2CN(CC(O)c3ccc(F)cc3)C2)c1 (stereo not given)	-5.26%
COc1cccc(S(=O)(=O)CCN2CCCCC2)c1	-15.7%
O=C(NCCc1csc(N2CCCC2)n1)N(C1CCCC1)C1CC1	-2.69%
Cc1ccc2ncnc(N3CCOCC3c3c(C)nn(C)c3C)c2c1 (stereo not given)	-11.7%
CCN(CC1CN(Cc2ncc[nH]2)CCO1)c1cccnn1 (stereo not given)	-6.7%
O=C(C1CC(=O)N(c2ccccc2Br)C1)N1CCC2(CC1)OCCO2 (stereo not given)	-6.47%
CCOC1CCN(C(=O)c2c(Cl)c3ccccc3n2C)CC1	-7.26%
Cc1ccsc1CNC(=O)NC1CCCc2c1cnn2CCO (stereo not given)	-6.7%
CCS(=O)(=O)c1ccc(N2CCC(NC(=O)c3cnn(C)c3)CC2)cc1	-4.33%
O=C(NCC(F)(F)F)NC1CCCc2c1cnn2CCO (stereo not given)	-8.96%
CC(C)Oc1ccc(CSc2nnc(CN3CCCC3=O)o2)cc1	-7.62%
CC(O)CN1CCN(C(=O)c2cnn(-c3ccccc3F)c2)CC1 (stereo not given)	-6.92%
Cc1nn(CCO)c(C)c1CNC1CCC(C)(C)c2ccccc21 (stereo not given)	-5.72%
CCCC(NC(=O)c1cc(C)n(C2CC2)c1C)c1nnn[nH]1 (stereo not given)	-0.607%
c1csc(COC[C@H]2CCC[C@]23CN(Cc2ccoc2)CCO3)n1	-9.63%

SMILES	cytotoxicity at 70.5 h
COCCO[C@H]1CCN(C(=O)c2ccsc2)[C@H]1Cc1cnn(C)c1	-11.9%
O=C(CC1CC1)N1CCC2(COCc3cnc(N4CCOCC4)nc32)C1 (stereo not given)	-6.88%
O=C(c1cccs1)N1CCC2(CC1)CN(c1ccsc1)C(=O)CO2	-8.69%
O=C(CCO)N1CC[C@@H]2CN(C(=O)c3ccco3)CCO[C@@H]2C1	-4.78%
CN(C)[C@@H]1CCN(C(=O)c2ccccn2)[C@H]1Cc1cnn(C)c1	-5.7%
c1cc(CN2CC[C@H]3O[C@@H](COCC4CCOCC4)CC[C@H]32)ccn1	23.2%
Cn1nnc2c1CCN(S(C)(=O)=O)C2COCc1ccccc1 (stereo not given)	13.6%
O=C(c1ccco1)N1CC[C@@H]2[C@H]1CCC(=O)N2c1ccccc1	-15.1%
Cn1cccc1C(=O)NCc1cn2c(n1)CN(c1ncccn1)CC2	-12.8%
CCS(=O)(=O)N1CCC2(CN(Cc3ccc(C)o3)C2)C1	-13.4%
CCS(=O)(=O)N1CCC2(CCN(Cc3ccc(C)o3)C2)C1 (stereo not given)	13%
Cn1cccc1C(=O)NCc1cn2c(n1)CN(S(=O)(=O)C1CC1)CC2	-10.3%
COCC1CN(C(=O)c2ccco2)Cc2nccn2C1 (stereo not given)	-9.63%
COCCC(=O)N1CCN(CC2CC2)c2ncccc2C1	8.88%
COCCC(=O)N1CCc2nc(N3CCOCC3)nc(NC(C)C)c2C1	-17%
O=C(C1CCOCC1)N1CCN(CC2CC2)c2ncccc2C1	-14.2%
COCCC(=O)N1CCC2(CN(Cc3cccc(Cl)c3)C2)C1	33.3%
O=c1ccc2c(n1CC1CC1)CCC(NS(=O)(=O)C1CC1)C2 (stereo not given)	21.2%
O=C(N1CCCC1)N1CCCC2(CCN(c3ccsc3)C2=O)C1 (stereo not given)	-7.85%
Cc1cc(S(=O)(=O)NC(C)(C)CN)c(F)cc1F	-9.88%
CN(C)C(=O)CN1CCC2(COCc3cnc(N4CCOCC4)nc32)C1 (stereo not given)	19.8%
CN1C(=O)C[C@H]2[C@H]1CCN2Cc1cccc(C#N)c1	-11.7%
CN(C)CCNC(=O)c1cc(-c2cnc(N3CCOCC3)nc2)cn1C	-8.38%

SMILES	cytotoxicity at 70.5 h
Cc1noc(C)c1CN1C[C@@H]2COC[C@H](C(=O)N3CCOCC3)[C@@H]2C1	-8.43%
c1csc(CN2CCn3c(Cn4cncn4)cnc3C2)c1	27.5%
Cn1nnc2c1CCN(CC1CC1)C2COCC1CC1 (stereo not given)	-12.8%
Cc1ccc(CN2CCc3c(nnn3C)C2COCc2ccccc2)s1 (stereo not given)	-7.66%
Cc1occc1C(=O)N1Cc2nccn2CC(CN(C)C)C1 (stereo not given)	-8.13%
O=C(c1ccco1)N1CCOC2(COCCN(c3ncccn3)C2)C1 (stereo not given)	-14.8%
COc1ccc(CN2CCCn3nnc(COCC4CC4)c3C2)cc1	-12.2%
Fc1ccc(CN2CCCn3nnc(COCC4CC4)c3C2)cc1	16.6%
COCCN1CCN(C(=O)N2CCCC2)Cc2ccc(C)nc21	24.9%
COCCC(=O)N1CCC2(CCN(Cc3cccc(F)c3)CC2)CC1	-5.26%
COCCC(=O)N1CCC2(CCN(Cc3ccc(C)cc3)CC2)C1	-7.89%
O=C(NC1CCC1)[C@@H]1C[C@@H]2CCN(CCc3ccccc3)C[C@H]2O1	-8.97%
COC[C@H]1CC[C@@H]2[C@@H](CCN2Cc2ccccn2)O1	22.1%
O=C(c1cnc2n1CCN(Cc1ccccc1)C2)N1CCCC1	-9.37%
N#Cc1cccc(CN2CC[C@@H]3[C@@H]2CC(=O)N3CCN2CCCC2)c1	-9.81%
O=C(c1cccnc1)N1CCN2C[C@H](OCc3ccccc3)C[C@H]2C1	-5.95%
O=C(c1ccnnc1)N1CCN2C[C@H](OCc3cccnc3)C[C@H]2C1	-8.22%
CN(C)CCN1CCc2c(nnn2C)C1COCc1ccccc1 (stereo not given)	10.5%
CC(=O)NCC(=O)N1CCN(CCN(C)C)c2ncccc2C1	-14.2%
CN(C)C(=O)CN1CCC2(CCCN(Cc3cccnc3)C2)C1=O (stereo not given)	-12%
c1cncc(COCC2CC[C@H]3[C@H](CCN3CC3CCOCC3)O2)c1 (stereo not given in full)	24.3%
O=C(N1CCCC1)N1CCC2(CC1)COCCN(Cc1cccnc1)C2	-4.16%
Cc1cccc(CN2CCOC3(COCCN(CCN(C)C)C3)C2)n1 (stereo not given)	-3.04%
